According to the supplement of paper PMC10307832:

How the values were obtained:
Experiment in all cases: relative viability (nuclei count vs DMSO), 5 days (fraction); higher = more cells survive
Gemcitabine + Navitoclax = compound: Nc1ccn([C@@H]2O[C@H](CO)[C@@H](O)C2(F)F)c(=O)n1 [Gemcitabine] + CC1(C)CCC(c2ccc(Cl)cc2)=C(CN2CCN(c3ccc(C(=O)NS(=O)(=O)c4ccc(N[C@H](CCN5CCOCC5)CSc5ccccc5)c(S(=O)(=O)C(F)(F)F)c4)cc3)CC2)C1 [Navitoclax] (partner 0.5 µM)
How it was run: (§1)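 Five library-drug doses in √10 steps were combined with a fixed anchor-drug dose, or a single drug was given alone, by pin tool to lung cancer cell lines in 1536-well plates the day after seeding. Nuclei were stained and counted after 5 days. Relative viability is the nuclei count in treated wells over that in vehicle wells, taken as the median of duplicate plates.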

Gemcitabine + Trametinib = compound: Nc1ccn([C@@H]2O[C@H](CO)[C@@H](O)C2(F)F)c(=O)n1 [Gemcitabine] + CC(=O)Nc1cccc(-n2c(=O)n(C3CC3)c(=O)c3c(Nc4ccc(I)cc4F)n(C)c(=O)c(C)c32)c1 [Trametinib] (partner 0.02 µM)
How it was run: as §1

Gemcitabine + Phenformin = compound: Nc1ccn([C@@H]2O[C@H](CO)[C@@H](O)C2(F)F)c(=O)n1 [Gemcitabine] + N=C(N)NC(=N)NCCc1ccccc1 [Phenformin] (partner 250 µM)
How it was run: as §1

Gemcitabine + Pemetrexed = compound: Nc1ccn([C@@H]2O[C@H](CO)[C@@H](O)C2(F)F)c(=O)n1 [Gemcitabine] + Nc1nc2[nH]cc(CCc3ccc(C(=O)N[C@@H](CCC(=O)O)C(=O)O)cc3)c2c(=O)[nH]1 [Pemetrexed] (partner 0.2 µM)
How it was run: as §1

Row | Cell Line | relative viability (Gemcitabine + Navitoclax; first compound 0.001 µM) | relative viability (Gemcitabine + Navitoclax; first compound 0.003162 µM) | relative viability (Gemcitabine + Navitoclax; first compound 0.01 µM) | relative viability (Gemcitabine + Navitoclax; first compound 0.03162 µM) | relative viability (Gemcitabine + Navitoclax; first compound 0.1 µM) | relative viability (Gemcitabine + Trametinib; first compound 0.001 µM) | relative viability (Gemcitabine + Trametinib; first compound 0.003162 µM) | relative viability (Gemcitabine + Trametinib; first compound 0.01 µM) | relative viability (Gemcitabine + Trametinib; first compound 0.03162 µM) | relative viability (Gemcitabine + Trametinib; first compound 0.1 µM) | relative viability (Gemcitabine + Phenformin; first compound 0.001 µM) | relative viability (Gemcitabine + Phenformin; first compound 0.003162 µM) | relative viability (Gemcitabine + Phenformin; first compound 0.01 µM) | relative viability (Gemcitabine + Phenformin; first compound 0.03162 µM) | relative viability (Gemcitabine + Phenformin; first compound 0.1 µM) | relative viability (Gemcitabine + Pemetrexed; first compound 0.001 µM) | relative viability (Gemcitabine + Pemetrexed; first compound 0.003162 µM) | relative viability (Gemcitabine + Pemetrexed; first compound 0.01 µM) | relative viability (Gemcitabine + Pemetrexed; first compound 0.03162 µM) | relative viability (Gemcitabine + Pemetrexed; first compound 0.1 µM)
1 | NCI-H441 | 0.348 | 0.211 | 0.171 | 0.189 | 0.102 | 0.46 | 0.318 | 0.196 | 0.131 | 0.132 | 0.808 | 0.552 | 0.269 | 0.204 | 0.176 | 0.277 | 0.282 | 0.217 | 0.16 | 0.115
2 | NCI-H1793 | 0.488 | 0.474 | 0.169 | 0.216 | 0.151 | 0.385 | 0.45 | 0.256 | 0.187 | 0.15 | 0.38 | 0.324 | 0.223 | 0.166 | 0.13 | 1.09 | 0.98 | 0.406 | 0.139 | 0.141
3 | NCI-H23 | 0.866 | 0.245 | 0.125 | 0.139 | 0.124 | 0.277 | 0.179 | 0.121 | 0.12 | 0.1 | 0.71 | 0.491 | 0.144 | 0.136 | 0.135 | 0.555 | 0.223 | 0.147 | 0.143 | 0.143
4 | HARA | 1.15 | 1.17 | 1.1 | 0.289 | 0.0674 | 0.592 | 0.635 | 0.797 | 0.143 | 0.107 | 0.498 | 0.556 | 0.445 | 0.222 | 0.0544 | 0.272 | 0.263 | 0.236 | 0.196 | 0.0974
5 | NCI-H1792 | 0.828 | 0.581 | 0.133 | 0.0844 | 0.0803 | 0.414 | 0.183 | 0.0715 | 0.0564 | 0.0677 | 0.291 | 0.104 | 0.0944 | 0.119 | 0.0679 | 0.773 | 0.174 | 0.0569 | 0.0984 | 0.0556
6 | NCI-H1703 | 0.73 | 0.178 | 0.141 | 0.118 | 0.102 |  |  |  |  |  |  |  |  |  |  |  |  |  |  | 
7 | NCI-H1648 |  |  |  |  |  | 0.423 | 0.339 | 0.473 | 0.326 | 0.234 |  |  |  |  |  | 0.836 | 0.64 | 0.628 | 0.339 | 0.349
8 | CAL-12T | 1.14 | 1.1 | 0.845 | 0.164 | 0.141 | 0.234 | 0.356 | 0.323 | 0.223 | 0.193 | 0.587 | 0.335 | 0.437 | 0.226 | 0.122 | 1.38 | 1.07 | 1.04 | 0.286 | 0.156
9 | NCI-H727 | 0.311 | 0.229 | 0.115 | 0.146 | 0.081 | 0.447 | 0.355 | 0.33 | 0.327 | 0.328 | 0.46 | 0.448 | 0.348 | 0.419 | 0.322 |  |  |  |  | 
10 | NCI-H2085 | 1.1 | 1.15 | 0.848 | 0.646 | 0.484 | 0.512 | 0.589 | 0.472 | 0.174 | 0.226 | 0.79 | 0.61 | 0.422 | 0.282 | 0.271 | 0.94 | 0.882 | 0.827 | 0.772 | 0.406
11 | NCI-H1395 | 1.05 | 0.859 | 0.525 | 0.61 | 0.414 | 1.01 | 0.841 | 0.554 | 0.424 | 0.359 | 0.403 | 0.417 | 0.321 | 0.315 | 0.318 | 0.91 | 0.622 | 0.335 | 0.296 | 0.312
12 | SW 900 |  |  |  |  |  | 0.722 | 0.609 | 0.119 | 0.142 | 0.13 | 0.654 | 0.181 | 0.0793 | 0.0687 | 0.0927 | 0.476 | 0.401 | 0.171 | 0.124 | 0.109
13 | NCI-H460 | 1.09 | 1.05 | 0.533 | 0.0127 | 0.0085 | 0.105 | 0.211 | 0.0498 | 0.0169 | 0.0076 | 0.589 | 0.565 | 0.0724 | 0.0156 | 0.0098 | 0.06 | 0.0638 | 0.0721 | 0.029 | 0.019
14 | A549 | 1.21 | 1.1 | 0.0375 | 0.0126 | 0.0108 |  |  |  |  |  | 0.158 | 0.0726 | 0.0184 | 0.0201 | 0.0216 |  |  |  |  | 
15 | IA-LM | 0.896 | 0.796 | 0.409 | 0.0336 | 0.0251 |  |  |  |  |  |  |  |  |  |  |  |  |  |  | 
16 | EKVX | 0.93 | 0.89 | 0.0897 | 0.133 | 0.0934 | 0.394 | 0.243 | 0.13 | 0.161 | 0.11 | 0.233 | 0.194 | 0.119 | 0.132 | 0.109 | 0.351 | 0.333 | 0.133 | 0.151 | 0.14
17 | ChaGo-K-1 | 0.939 | 0.443 | 0.361 | 0.26 | 0.266 | 0.897 | 0.757 | 0.461 | 0.189 | 0.155 | 0.444 | 0.378 | 0.204 | 0.17 | 0.159 | 0.247 | 0.23 | 0.23 | 0.209 | 0.183
18 | NCI-H1755 | 0.925 | 1.04 | 0.827 | 0.256 | 0.153 | 0.759 | 0.749 | 0.736 | 0.616 | 0.328 | 0.582 | 0.651 | 0.482 | 0.4 | 0.336 | 0.414 | 0.47 | 0.319 | 0.376 | 0.355
19 | NCI-H2228 | 1.13 | 0.407 | 0.203 | 0.0863 | 0.0652 | 0.587 | 0.248 | 0.156 | 0.0861 | 0.111 | 0.304 | 0.168 | 0.126 | 0.111 | 0.0895 | 0.348 | 0.332 | 0.166 | 0.092 | 0.112
